From PubChem BioAssay AID2060497 (Molecular Pharmacology Branch, DTP, NCI, 2025)

Tested on: 317291-083-R-J1-PDC complex spheroids, viability
Experiment: Anticancer human tumor 317291-083-R-J1-PDC patient-derived soft tissue sarcoma cell line growth inhibition [GQUAD]
Conditions: for IC50: curve of first compound; for viability, T/C: stronger effect = lower value
Method in brief: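 Viability of tumor cells grown as complex spheroids with endothelial and stromal cells, exposed to drug combinations. Top concentration at or near clinical Cmax (else 10 microM), diluted in half-log increments.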

[1] = second compound 0.0316 µM, first compound 0.0316 µM
[2] = second compound 0.0316 µM, first compound 0.1 µM
[3] = second compound 0.0316 µM, first compound 0.316 µM
[4] = second compound 0.0316 µM, first compound 1 µM
[5] = second compound 0.0316 µM, first compound 3.16 µM
[6] = second compound 0.0316 µM, first compound 10 µM
[7] = second compound 0.1 µM, first compound 0.0316 µM
[8] = second compound 0.1 µM, first compound 0.1 µM
[9] = second compound 0.1 µM, first compound 0.316 µM
[10] = second compound 0.1 µM, first compound 1 µM
[11] = second compound 0.1 µM, first compound 3.16 µM
[12] = second compound 0.1 µM, first compound 10 µM
[13] = second compound 0.316 µM, first compound 0.0316 µM
[14] = second compound 0.316 µM, first compound 0.1 µM
[15] = second compound 0.316 µM, first compound 0.316 µM
[16] = second compound 0.316 µM, first compound 1 µM
[17] = second compound 0.316 µM, first compound 3.16 µM
[18] = second compound 0.316 µM, first compound 10 µM
[19] = second compound 1 µM, first compound 0.0316 µM
[20] = second compound 1 µM, first compound 0.1 µM
[21] = second compound 1 µM, first compound 0.316 µM
[22] = second compound 1 µM, first compound 1 µM
[23] = second compound 1 µM, first compound 3.16 µM
[24] = second compound 1 µM, first compound 10 µM
[25] = second compound 3.16 µM, first compound 0.0316 µM
[26] = second compound 3.16 µM, first compound 0.1 µM
[27] = second compound 3.16 µM, first compound 0.316 µM
[28] = second compound 3.16 µM, first compound 1 µM
[29] = second compound 3.16 µM, first compound 3.16 µM
[30] = second compound 3.16 µM, first compound 10 µM
[31] = second compound 10 µM, first compound 0.0316 µM
[32] = second compound 10 µM, first compound 0.1 µM
[33] = second compound 10 µM, first compound 0.316 µM
[34] = second compound 10 µM, first compound 1 µM
[35] = second compound 10 µM, first compound 3.16 µM
[36] = second compound 10 µM, first compound 10 µM
[37] = second compound 0.0316 µM, first compound 0.000999 µM
[38] = second compound 0.0316 µM, first compound 0.00316 µM
[39] = second compound 0.0316 µM, first compound 0.00999 µM
[40] = second compound 0.0316 µM, first compound 0.0999 µM
[41] = second compound 0.1 µM, first compound 0.000999 µM
[42] = second compound 0.1 µM, first compound 0.00316 µM
[43] = second compound 0.1 µM, first compound 0.00999 µM
[44] = second compound 0.1 µM, first compound 0.0999 µM
[45] = second compound 0.316 µM, first compound 0.000999 µM
[46] = second compound 0.316 µM, first compound 0.00316 µM
[47] = second compound 0.316 µM, first compound 0.00999 µM
[48] = second compound 0.316 µM, first compound 0.0999 µM
[49] = second compound 1 µM, first compound 0.000999 µM
[50] = second compound 1 µM, first compound 0.00316 µM
[51] = second compound 1 µM, first compound 0.00999 µM
[52] = second compound 1 µM, first compound 0.0999 µM
[53] = second compound 3.16 µM, first compound 0.000999 µM
[54] = second compound 3.16 µM, first compound 0.00316 µM
[55] = second compound 3.16 µM, first compound 0.00999 µM
[56] = second compound 3.16 µM, first compound 0.0999 µM
[57] = second compound 10 µM, first compound 0.000999 µM
[58] = second compound 10 µM, first compound 0.00316 µM
[59] = second compound 10 µM, first compound 0.00999 µM
[60] = second compound 10 µM, first compound 0.0999 µM
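Further: spheroids exposed to compounds for one week before readout.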
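Wherever viability, T/C is given: percent viability relative to DMSO vehicle wells taken as 100%.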

## CC(C)n1c(=O)n(C)c2cnc3cc(F)c(-c4ccc(OCCCN5CCCCC5)nc4)cc3c21 + Cc1cnc(CNC(=O)c2c(=O)c3ccc(N4CCCN(C)CC4)nc3n3c2sc2ccccc23)cn1
Second compound 0.0316 µM
  IC50: 858 nM
Second compound 0.1 µM
  IC50: < 31.6 nM
Second compound 0.316 µM
  IC50: < 31.6 nM
Second compound 1 µM
  IC50: < 31.6 nM
Second compound 3.16 µM
  IC50: < 31.6 nM
Second compound 10 µM
  IC50: < 31.6 nM
[1]
  viability, T/C: 57.3%
[2]
  viability, T/C: 51.3%
[3]
  viability, T/C: 45.1%
[4]
  viability, T/C: 29.2%
[5]
  viability, T/C: 73.3%
[6]
  viability, T/C: 44.5%
[7]
  viability, T/C: 37.1%
[8]
  viability, T/C: 37%
[9]
  viability, T/C: 24.6%
[10]
  viability, T/C: 25.9%
[11]
  viability, T/C: 23.9%
[12]
  viability, T/C: 25.3%
[13]
  viability, T/C: 21.2%
[14]
  viability, T/C: 25.9%
[15]
  viability, T/C: 25.4%
[16]
  viability, T/C: 22.1%
[17]
  viability, T/C: 33%
[18]
  viability, T/C: 17.5%
[19]
  viability, T/C: 18.2%
[20]
  viability, T/C: 22.1%
[21]
  viability, T/C: 23.5%
[22]
  viability, T/C: 19.4%
[23]
  viability, T/C: 21.9%
[24]
  viability, T/C: 21.5%
[25]
  viability, T/C: 11.4%
[26]
  viability, T/C: 13.9%
[27]
  viability, T/C: 29.8%
[28]
  viability, T/C: 10.7%
[29]
  viability, T/C: 13.1%
[30]
  viability, T/C: 11.4%
[31]
  viability, T/C: 26.2%
[32]
  viability, T/C: 16.6%
[33]
  viability, T/C: 10.7%
[34]
  viability, T/C: 21.9%
[35]
  viability, T/C: 25.5%
[36]
  viability, T/C: 23.4%

## Cc1[nH]c2ccccc2c1CCNCc1ccc(/C=C/C(=O)NO)cc1 + Cc1cnc(CNC(=O)c2c(=O)c3ccc(N4CCCN(C)CC4)nc3n3c2sc2ccccc23)cn1
Second compound 0.0316 µM
  IC50: 54.2 nM
Second compound 0.1 µM
  IC50: 20.1 nM
Second compound 0.316 µM
  IC50: 1.57 nM
Second compound 1 µM
  IC50: < 0.999 nM
Second compound 3.16 µM
  IC50: < 0.999 nM
Second compound 10 µM
  IC50: < 0.999 nM
[37]
  viability, T/C: 101%
[38]
  viability, T/C: 80.9%
[39]
  viability, T/C: 103%
[1]
  viability, T/C: 80%
[40]
  viability, T/C: 15.5%
[3]
  viability, T/C: 0.98%
[41]
  viability, T/C: 67.3%
[42]
  viability, T/C: 54.2%
[43]
  viability, T/C: 55.2%
[7]
  viability, T/C: 46.1%
[44]
  viability, T/C: 12.2%
[9]
  viability, T/C: 0.49%
[45]
  viability, T/C: 59%
[46]
  viability, T/C: 35.4%
[47]
  viability, T/C: 31.4%
[13]
  viability, T/C: 25.5%
[48]
  viability, T/C: 14.5%
[15]
  viability, T/C: 0.46%
[49]
  viability, T/C: 34.4%
[50]
  viability, T/C: 20.5%
[51]
  viability, T/C: 34.5%
[19]
  viability, T/C: 26%
[52]
  viability, T/C: 7.38%
[21]
  viability, T/C: 0.1%
[53]
  viability, T/C: 27.3%
[54]
  viability, T/C: 41.7%
[55]
  viability, T/C: 50%
[25]
  viability, T/C: 0.4%
[56]
  viability, T/C: 0.16%
[27]
  viability, T/C: 0.22%
[57]
  viability, T/C: 3.89%
[58]
  viability, T/C: 11.2%
[59]
  viability, T/C: 0.33%
[31]
  viability, T/C: 1.81%
[60]
  viability, T/C: 0.47%
[33]
  viability, T/C: 0.44%

## Cn1ncnc1[C@H]1c2n[nH]c(=O)c3cc(F)cc(c23)N[C@@H]1c1ccc(F)cc1 + Cc1cnc(CNC(=O)c2c(=O)c3ccc(N4CCCN(C)CC4)nc3n3c2sc2ccccc23)cn1
Second compound 0.0316 µM
  IC50: 246 nM
Second compound 0.1 µM
  IC50: 24.2 nM
Second compound 0.316 µM
  IC50: < 0.999 nM
Second compound 1 µM
  IC50: < 0.999 nM
Second compound 3.16 µM
  IC50: < 0.999 nM
Second compound 10 µM
  IC50: < 0.999 nM
[37]
  viability, T/C: 88.6%
[38]
  viability, T/C: 106%
[39]
  viability, T/C: 75.6%
[1]
  viability, T/C: 74%
[40]
  viability, T/C: 59.8%
[3]
  viability, T/C: 46.8%
[41]
  viability, T/C: 73.8%
[42]
  viability, T/C: 74.7%
[43]
  viability, T/C: 49.7%
[7]
  viability, T/C: 50.4%
[44]
  viability, T/C: 37.9%
[9]
  viability, T/C: 25.3%
[45]
  viability, T/C: 46.1%
[46]
  viability, T/C: 42.7%
[47]
  viability, T/C: 41.2%
[13]
  viability, T/C: 25.5%
[48]
  viability, T/C: 36.7%
[15]
  viability, T/C: 24.2%
[49]
  viability, T/C: 32.2%
[50]
  viability, T/C: 35.5%
[51]
  viability, T/C: 31.4%
[19]
  viability, T/C: 21.1%
[52]
  viability, T/C: 24.3%
[21]
  viability, T/C: 23.9%
[53]
  viability, T/C: 17.3%
[54]
  viability, T/C: 13.4%
[55]
  viability, T/C: 16.9%
[25]
  viability, T/C: 17.2%
[56]
  viability, T/C: 20.3%
[27]
  viability, T/C: 12.7%
[57]
  viability, T/C: 41%
[58]
  viability, T/C: 35.4%
[59]
  viability, T/C: 25.4%
[31]
  viability, T/C: 34.6%
[60]
  viability, T/C: 29.9%
[33]
  viability, T/C: 25.4%

## COc1ccc([C@@H](O)c2cc(-c3ncnc4cc(N5CCOCC5)ccc34)c(F)cc2Cl)nn1 + CN(C)c1ccc(Nc2c3ccc(NC(=O)CCN4CCCC4)cc3nc3cc(NC(=O)CCN4CCCC4)ccc23)cc1
Second compound 0.0316 µM
  IC50: 5630 nM
Second compound 0.1 µM
  IC50: 4160 nM
Second compound 0.316 µM
  IC50: 2040 nM
Second compound 1 µM
  IC50: 114 nM
Second compound 3.16 µM
  IC50: < 31.6 nM
Second compound 10 µM
  IC50: < 31.6 nM
[1]
  viability, T/C: 111%
[2]
  viability, T/C: 108%
[3]
  viability, T/C: 94%
[4]
  viability, T/C: 89.4%
[5]
  viability, T/C: 67.4%
[6]
  viability, T/C: 33.1%
[7]
  viability, T/C: 104%
[8]
  viability, T/C: 97.5%
[9]
  viability, T/C: 104%
[10]
  viability, T/C: 82%
[11]
  viability, T/C: 57%
[12]
  viability, T/C: 31%
[13]
  viability, T/C: 85.2%
[14]
  viability, T/C: 76.3%
[15]
  viability, T/C: 71.6%
[16]
  viability, T/C: 61%
[17]
  viability, T/C: 43.5%
[18]
  viability, T/C: 21.9%
[19]
  viability, T/C: 57.5%
[20]
  viability, T/C: 42.6%
[21]
  viability, T/C: 47.9%
[22]
  viability, T/C: 42.5%
[23]
  viability, T/C: 28.8%
[24]
  viability, T/C: 12.8%
[25]
  viability, T/C: 22.4%
[26]
  viability, T/C: 24.1%
[27]
  viability, T/C: 32.2%
[28]
  viability, T/C: 15.5%
[29]
  viability, T/C: 8.93%
[30]
  viability, T/C: 6.58%
[31]
  viability, T/C: 12.8%
[32]
  viability, T/C: 15%
[33]
  viability, T/C: 3.27%
[34]
  viability, T/C: 5.49%
[35]
  viability, T/C: 11.5%
[36]
  viability, T/C: 1.01%
